Among the data in paper PMC10763615, “Identification and engineering of potent cyclic peptides with selective or promiscuous binding through biochemical profiling and bioinformatic data analysis” (RSC Chemical Biology, 2023) are Kd values, retold here.

Holding throughout (type): binding
For experiment [1], the target named is T1, FGF-R4 ECD (Homo sapiens, UniProt P22455).
T1 construct: DNA constructs for the extracellular domain (ECD) of human FGF-; HPC4 (C); made in house; host or cells: HEK 293-6E
T1 sequence (P22455 22-369 limits assumed): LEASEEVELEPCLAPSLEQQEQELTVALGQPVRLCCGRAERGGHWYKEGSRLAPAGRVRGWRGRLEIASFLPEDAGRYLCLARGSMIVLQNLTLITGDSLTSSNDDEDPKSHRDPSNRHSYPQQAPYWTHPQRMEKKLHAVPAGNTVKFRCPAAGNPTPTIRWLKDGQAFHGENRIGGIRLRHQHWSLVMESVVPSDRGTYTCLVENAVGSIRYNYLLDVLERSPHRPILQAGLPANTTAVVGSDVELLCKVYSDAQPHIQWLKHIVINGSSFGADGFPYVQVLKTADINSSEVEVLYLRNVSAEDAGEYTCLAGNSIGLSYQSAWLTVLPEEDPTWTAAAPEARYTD
Kind of experiment: single concentration BLI of crude peptides. The settings on record: read-out: KD (4). The gist of the method:
(§1)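 BLI, streptavidin sensors loaded with biotinylated receptor ECD. Single-point: ~1 μM crude peptide, PBS pH7.4/0.05% Tween-20/0.01% BSA; association then dissociation in buffer. KD corrected for UPLC-CAD-determined concentration.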

Experiment [2] concerns the target T2, FGF-R3C ECD (Homo sapiens, UniProt P22607).
T2 sequence (P22607 23-375 limits assumed): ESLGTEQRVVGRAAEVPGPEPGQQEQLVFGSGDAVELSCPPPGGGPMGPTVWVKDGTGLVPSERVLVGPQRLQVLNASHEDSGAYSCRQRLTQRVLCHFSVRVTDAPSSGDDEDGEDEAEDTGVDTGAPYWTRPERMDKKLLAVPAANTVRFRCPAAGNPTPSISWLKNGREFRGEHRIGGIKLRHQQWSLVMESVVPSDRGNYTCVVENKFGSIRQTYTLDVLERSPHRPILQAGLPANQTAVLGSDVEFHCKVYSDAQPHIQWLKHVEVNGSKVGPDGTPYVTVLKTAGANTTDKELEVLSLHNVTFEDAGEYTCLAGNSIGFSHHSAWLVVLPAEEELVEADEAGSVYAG
Kind of experiment: biochemical. Details: DNA constructs for the extracellular domain (ECD) of human FGF-; HPC4 (C); made in house; host or cells: HEK 293-6E. An outline of the steps:
as §1

The target of experiment [3] is T3, FGF-R1C ECD (Homo sapiens, UniProt P11362).
T3 sequence (P11362 22-376 limits assumed): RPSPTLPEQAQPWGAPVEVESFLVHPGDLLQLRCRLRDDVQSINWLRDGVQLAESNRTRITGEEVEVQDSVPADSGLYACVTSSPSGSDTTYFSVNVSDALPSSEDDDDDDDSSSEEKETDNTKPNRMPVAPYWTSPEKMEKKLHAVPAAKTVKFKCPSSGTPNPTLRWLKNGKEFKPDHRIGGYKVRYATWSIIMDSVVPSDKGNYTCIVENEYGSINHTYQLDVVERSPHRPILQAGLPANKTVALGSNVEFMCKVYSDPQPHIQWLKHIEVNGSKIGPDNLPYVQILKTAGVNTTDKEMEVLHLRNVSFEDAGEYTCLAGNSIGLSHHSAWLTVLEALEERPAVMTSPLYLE
Kind of experiment: biochemical. Set-up: DNA constructs for the extracellular domain (ECD) of human FGF-; HPC4 (C); made in house; host or cells: HEK 293-6E. The gist of the method:
as §1

The mark [4] stands for this setting: crude T18 selection 1 (1:1:1) peptides, single concentration BLI (Table S4).

SMILES strings stand for the structures. Where two headings read alike, the source gives them in different places. Positions of bridges follow the written chain, without caps; N, C: chain ends. Residues, ends and D or L forms follow the SMILES beside them.

The Kd is the concentration at which binding is half-saturated. Turning to `CSCC[C@H](NC(C)=O)C(=O)N[C@H]1CSSC[C@@H](C(=O)NCC(=O)N[C@@H](CO)C(=O)NCC(=O)N[C@@H](CO)C(=O)N[C@@H](CC(=O)O)C(=O)N[C@@H](Cc2ccc(O)cc2)C(=O)N[C@@H](CCCCN)C(=O)N[C@@H](CC(=O)O)C(=O)N[C@@H](CC(=O)O)C(=O)N[C@@H](CC(=O)O)C(=O)N[C@@H](CC(=O)O)C(=O)N[C@@H](CCCCN)C(N)=O)NC(=O)[C@H](CCC(N)=O)NC(=O)[C@H](Cc2c[nH]cn2)NC(=O)[C@H](Cc2c[nH]c3ccccc23)NC(=O)[C@H](CC(C)C)NC(=O)[C@H]([C@@H](C)O)NC(=O)[C@H](CCC(=O)O)NC(=O)[C@H](Cc2ccc(O)cc2)NC(=O)[C@@H]2CCCN2C(=O)[C@H](Cc2c[nH]cn2)NC(=O)[C@H](CCCNC(=N)N)NC(=O)[C@H](Cc2c[nH]cn2)NC(=O)[C@H]([C@@H](C)O)NC1=O` (Ac-MCTHRHPYETLWHQCGSGSDYKDDDDK-NH2; disulfide 2-15), the Kd in experiment [1] (setting [4]), in experiment [2] and in experiment [3] was > 10 µM in each case.

In the case of `CC[C@H](C)[C@@H]1NC(=O)[C@H](CO)NC(=O)[C@H](Cc2ccccc2)NC(=O)[C@H](Cc2c[nH]cn2)NC(=O)CNC(=O)[C@@H](NC(=O)[C@H](CCSC)NC(C)=O)CSSC[C@@H](C(=O)NCC(=O)N[C@@H](CO)C(=O)NCC(=O)N[C@@H](CO)C(=O)N[C@@H](CC(=O)O)C(=O)N[C@@H](Cc2ccc(O)cc2)C(=O)N[C@@H](CCCCN)C(=O)N[C@@H](CC(=O)O)C(=O)N[C@@H](CC(=O)O)C(=O)N[C@@H](CC(=O)O)C(=O)N[C@@H](CC(=O)O)C(=O)N[C@@H](CCCCN)C(N)=O)NC(=O)[C@H](Cc2c[nH]c3ccccc23)NC(=O)[C@H](CCCCN)NC(=O)[C@H](Cc2ccccc2)NC(=O)[C@H](Cc2c[nH]c3ccccc23)NC(=O)[C@H]([C@@H](C)O)NC1=O` (Ac-MCGHFSITWFKWCGSGSDYKDDDDK-NH2; disulfide 2-13), the Kd was > 10 µM in experiment [1] (crude NNK peptides, single concentration BLI (Table S3)); > 10 µM in experiment [2]; > 10 µM in experiment [3].

For `CC[C@H](C)[C@@H]1NC(=O)[C@H](CC(N)=O)NC(=O)[C@H](Cc2ccc(O)cc2)NC(=O)[C@@H](NC(=O)[C@H](CCSC)NC(C)=O)CSSC[C@@H](C(=O)NCC(=O)N[C@@H](CO)C(=O)NCC(=O)N[C@@H](CO)C(=O)N[C@@H](CC(=O)O)C(=O)N[C@@H](Cc2ccc(O)cc2)C(=O)N[C@@H](CCCCN)C(=O)N[C@@H](CC(=O)O)C(=O)N[C@@H](CC(=O)O)C(=O)N[C@@H](CC(=O)O)C(=O)N[C@@H](CC(=O)O)C(=O)N[C@@H](CCCCN)C(N)=O)NC(=O)[C@H](CCC(=O)O)NC(=O)[C@H](CCCNC(=N)N)NC(=O)[C@H](CCCNC(=N)N)NC(=O)[C@H](C(C)C)NC(=O)[C@H](Cc2ccc(O)cc2)NC(=O)[C@H](CCCCN)NC(=O)[C@H](Cc2ccc(O)cc2)NC(=O)[C@H](Cc2c[nH]c3ccccc23)NC(=O)[C@H](Cc2ccc(O)cc2)NC1=O` (Ac-MCYNIYWYKYVRRECGSGSDYKDDDDK-NH2; disulfide 2-15), the Kd in experiment [1] (setting [4]) is 0.001 µM; in experiment [2], > 10 µM; in experiment [3] it was 0.387 µM.

Turning to `CC[C@H](C)[C@@H]1NC(=O)[C@H](CCCCN)NC(=O)[C@H](Cc2ccccc2)NC(=O)[C@H](Cc2ccccc2)NC(=O)[C@H](Cc2c[nH]cn2)NC(=O)[C@H]([C@@H](C)CC)NC(=O)[C@@H]2CCCN2C(=O)[C@@H](NC(=O)[C@H](CCSC)NC(C)=O)CSSC[C@@H](C(=O)NCC(=O)N[C@@H](CO)C(=O)NCC(=O)N[C@@H](CO)C(=O)N[C@@H](CCC(=O)O)C(=O)N[C@@H](CCC(=O)O)C(=O)NCC(=O)N[C@@H](CO)C(=O)NCC(=O)N[C@@H](CO)C(=O)N[C@@H](CC(=O)O)C(=O)N[C@@H](Cc2ccc(O)cc2)C(=O)N[C@@H](CCCCN)C(=O)N[C@@H](CC(=O)O)C(=O)N[C@@H](CC(=O)O)C(=O)N[C@@H](CC(=O)O)C(=O)N[C@@H](CC(=O)O)C(=O)N[C@@H](CCCCN)C(N)=O)NC(=O)[C@H](Cc2c[nH]cn2)NC(=O)[C@H](CCCNC(=N)N)NC(=O)[C@H](Cc2ccc(O)cc2)NC(=O)[C@H](C(C)C)NC1=O` (Ac-MCPIHFFKIVYRHCGSGSEEGSGSDYKDDDDK-NH2; disulfide 2-14), the Kd in experiment [1] (setting [4]) is 0.01 µM; in experiment [2], > 10 µM; in experiment [3], 0.01 µM.

Turning to `CSCC[C@H](NC(C)=O)C(=O)N[C@H]1CSSC[C@@H](C(=O)NCC(=O)N[C@@H](CO)C(=O)NCC(=O)N[C@@H](CO)C(=O)N[C@@H](CC(=O)O)C(=O)N[C@@H](Cc2ccc(O)cc2)C(=O)N[C@@H](CCCCN)C(=O)N[C@@H](CC(=O)O)C(=O)N[C@@H](CC(=O)O)C(=O)N[C@@H](CC(=O)O)C(=O)N[C@@H](CC(=O)O)C(=O)N[C@@H](CCCCN)C(N)=O)NC(=O)[C@H](CCC(N)=O)NC(=O)[C@H](CCC(=O)O)NC(=O)[C@H](Cc2c[nH]c3ccccc23)NC(=O)[C@H](Cc2c[nH]cn2)NC(=O)CNC(=O)[C@H](Cc2ccc(O)cc2)NC(=O)[C@@H]2CCCN2C(=O)[C@H](Cc2c[nH]cn2)NC(=O)[C@H](CCCNC(=N)N)NC(=O)[C@H](Cc2c[nH]cn2)NC(=O)[C@H](CCC(=O)O)NC1=O` (Ac-MCEHRHPYGHWEQCGSGSDYKDDDDK-NH2; disulfide 2-14), the dissociation constant (Kd) in experiment [1] (setting [4]), in experiment [2] and in experiment [3] was > 10 µM in each case.

For `CC[C@H](C)[C@@H]1NC(=O)[C@H](CC(C)C)NC(=O)[C@H](Cc2ccc(O)cc2)NC(=O)[C@H](Cc2c[nH]cn2)NC(=O)[C@H](Cc2c[nH]cn2)NC(=O)CNC(=O)[C@H](CC(C)C)NC(=O)[C@H](C(C)C)NC(=O)[C@H](Cc2ccccc2)NC(=O)[C@H](CC(=O)O)NC(=O)[C@H](Cc2ccc(O)cc2)NC(=O)[C@H]([C@@H](C)O)NC(=O)[C@@H](NC(=O)[C@H](CCSC)NC(C)=O)CSSC[C@@H](C(=O)NCC(=O)N[C@@H](CO)C(=O)NCC(=O)N[C@@H](CO)C(=O)N[C@@H](CC(=O)O)C(=O)N[C@@H](Cc2ccc(O)cc2)C(=O)N[C@@H](CCCCN)C(=O)N[C@@H](CC(=O)O)C(=O)N[C@@H](CC(=O)O)C(=O)N[C@@H](CC(=O)O)C(=O)N[C@@H](CC(=O)O)C(=O)N[C@@H](CCCCN)C(N)=O)NC1=O` (Ac-MCTYDFVLGHHYLICGSGSDYKDDDDK-NH2; disulfide 2-15), the Kd in experiment [1] (setting [4]), in experiment [2] and in experiment [3] was > 10 µM in each case.

Regarding `CC[C@H](C)[C@@H]1NC(=O)[C@H](CCCCN)NC(=O)[C@H](Cc2ccc(O)cc2)NC(=O)[C@H](Cc2c[nH]c3ccccc23)NC(=O)[C@H]([C@@H](C)CC)NC(=O)[C@H](C(C)C)NC(=O)[C@H](CCC(=O)O)NC(=O)[C@@H](NC(=O)[C@H](CCSC)NC(C)=O)CSSC[C@@H](C(=O)NCC(=O)N[C@@H](CO)C(=O)NCC(=O)N[C@@H](CO)C(=O)N[C@@H](CC(=O)O)C(=O)N[C@@H](Cc2ccc(O)cc2)C(=O)N[C@@H](CCCCN)C(=O)N[C@@H](CC(=O)O)C(=O)N[C@@H](CC(=O)O)C(=O)N[C@@H](CC(=O)O)C(=O)N[C@@H](CC(=O)O)C(=O)N[C@@H](CCCCN)C(N)=O)NC(=O)[C@H](CCCCN)NC(=O)[C@H](CCCNC(=N)N)NC(=O)[C@H](Cc2c[nH]c3ccccc23)NC(=O)[C@H](CCC(N)=O)NC1=O` (Ac-MCEVIWYKIQWRKCGSGSDYKDDDDK-NH2; disulfide 2-14), the Kd was 0.012 µM in experiment [1] (setting [4]), > 10 µM in experiment [2] and > 10 µM in experiment [3].
